Data taken from US6541517B1, “Treatment of skin disorders” (priority 1999, dated 2003).

Assays:
[1] = water, alcohol, ether and chloroform; cited from earlier work
[2] = test system: patients who presented with psoriatic lesions; experiment: Topical treatment of psoriasis in outpatients; format: in vivo, human; conditions: applied as a topical, episodic treatment for psoriasis
Description: Eight patients who presented with psoriatic lesions were treated with the ointment of Example 1 on an outpatient basis. The ointment of Example 1 was applied to the psoriatic lesions up to four times per day.

[3] = Federal Register, vol. 47, 12553 (Mar. 23, 1982); cited from earlier work

Row | SMILES | miscibility [1] | effect on psoriatic lesions [2] | safety for topical use [3]
1 | CC(=O)OCC(CO)OC(C)=O (centres unmarked) [diacetin, glycerol diacetate] | miscible in water, alcohol, ether and chloroform |  | 
2 | CC(=O)OCC(O)CO (centres unmarked) [monacetin, glycerol monoacetate] | miscible in water, alcohol, ether and chloroform |  | 
3 | CC(=O)OCC(COC(C)=O)OC(C)=O [Triacetin, 1,2,3-propanetriol triacetate] | miscible in water, alcohol, ether and chloroform | improve psoriatic lesions | safe for topical use
